Reference: patent US20110053916A1 (Vertex Pharmaceuticals Incorporated, priority 2009, published 2011)

Assays:
[1] = tested on: Mycobacterium tuberculosis H37Ra; test: Mycobacterium tuberculosis growth inhibition assay (microtiter dilution, resazurin reduction); type: cell-based; conditions: 7H9 broth, 9 days + 24 h resazurin, lowest concentration inhibiting resazurin reduction by >70%, several symbols in a cell = repeat determinations
Experimental: Compounds were screened for their ability to inhibit the growth of Mycobacterium tuberculosis H37Ra using a standard microtiter dilution method with reduction of the dye resazurin as an indicator of growth. The growth assay was carried out in standard Mycobacterium liquid growth medium, 7H9Broth (BD Biosciences, Franklin Lakes, N.J.) supplemented with 10% ADC enrichment (BD Biosciences, Franklin Lakes, N.J.). The medium was inoculate with ˜1×10^6 cells/milliliter of Mycobacterium tuberculosis H37Ra grown on a the surface of a growth medium solid medium (7H11 agar [BD Biosciences, Franklin Lakes, N.J.] supplemented with 10% OADC enrichment [BD Biosciences, Franklin Lakes, N.J.]).
Two-fold serial dilutions (either 7 or 11-step series) of test compounds in DMSO were dispensed into 96-well assay plates (sterile, black sided, clear bottom wells) in a volume of 1 microliter. One microliter of DMSO was dispensed into a control well at the end of each series. One-hundred microliters of the bacterial cell suspension in growth medium was dispensed into each test well containing a DSMO solution of compound. The assay plates were covered with a fitted lid and incubated at 37° C. in a humidified chamber for 9 days. On the ninth day 30 microliters of a 0.01% solution of resazurin (Sigma Chemical Co., St. Louis, Mo.) in distilled water was added to each well and the baseline fluorescence of resazurin was determined by measuring well fluorescence at an excitation wavelength of 492 nm and an emission wavelength of 595 nm on a Spectrafluor Plus (Tecan, Durham, N.C.) instrument. The assay plates were returned to the incubation chamber for 24 hours. After 24 hours, the fluorescence of the wells (resulting from the reduction of resazurin dye) was measured at an excitation wavelength of 492 nm and an emission wavelength of 595 nm on the Spectrafluor Plus instrument. The minimum inhibitory concentration (MIC) was called as the lowest concentration of compound that inhibited the reduction of resazurin by >70%, as compared to the DMSO (untreated) control wells. MIC values are represented as the following values: • A* <1.6 μM • A 1.6 μM<12.5 μM • B** 12.5 μM-25.0 μM • B* 25.0 μM-50.0 μM • B 50.0 μM-100.0 μM • C >100.0 μM

PknB = target: T1, PknB (Mycobacterium tuberculosis, UniProt P9WI81); test: biochemical; parameters: species or system M. tuberculosis; conditions: 3 nM PknB, 6 uM GarA, 3 μM ATP, 30 min, competitive tight-binding fit, several symbols in a cell = repeat determinations; for Ki: read-out: Ki Values
T1 construct: made in house
T1 sequence (P9WI81 whole entry): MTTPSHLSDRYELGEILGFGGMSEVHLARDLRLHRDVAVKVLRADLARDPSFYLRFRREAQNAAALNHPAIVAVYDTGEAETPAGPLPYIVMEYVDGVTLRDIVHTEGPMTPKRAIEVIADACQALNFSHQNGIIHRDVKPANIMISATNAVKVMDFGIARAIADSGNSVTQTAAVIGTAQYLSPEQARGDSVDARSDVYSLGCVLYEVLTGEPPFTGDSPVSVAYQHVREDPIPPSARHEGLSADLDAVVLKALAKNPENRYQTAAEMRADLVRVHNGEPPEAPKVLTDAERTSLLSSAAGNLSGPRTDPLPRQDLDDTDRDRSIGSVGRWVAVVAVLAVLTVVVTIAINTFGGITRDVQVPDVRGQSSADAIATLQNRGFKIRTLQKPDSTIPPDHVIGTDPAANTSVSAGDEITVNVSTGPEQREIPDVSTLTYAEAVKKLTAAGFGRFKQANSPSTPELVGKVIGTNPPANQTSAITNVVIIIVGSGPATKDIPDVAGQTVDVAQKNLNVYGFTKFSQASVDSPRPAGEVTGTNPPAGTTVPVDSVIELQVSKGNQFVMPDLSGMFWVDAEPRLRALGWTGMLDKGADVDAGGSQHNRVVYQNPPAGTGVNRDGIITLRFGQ

Structure (SMILES) | MIC values [1] | Ki (PknB) | Ki Values (PknB)
CC(C)(C)OC(=O)NCCNS(=O)(=O)c1ccc(-c2ncc(Cl)c(Nc3cc(C4CC4)[nH]n3)n2)s1 [Compound 78, tert-Butyl 2-(5-(5-chloro-4-(5-cyclopropyl-1H-pyrazol-3-ylamino)pyrimidin-2-yl)thiophene-2-sulfonamido)ethylcarbamate] | A, B++, C, C | 100 to 500 nM | –
CN(C)CCNS(=O)(=O)c1ccc(-c2ncc(Cl)c(Nc3cc(C4CC4)[nH]n3)n2)s1 [Compound 79, 5-[5-chloro-4-[(5-cyclopropyl-1H-pyrazol-3-yl)amino]-pyrimidin-2-yl]-N-(2-dimethylaminoethyl)thiophene-2-sulfonamide] | B+, B | 10 to 50 nM | –
Nc1ccc(Nc2nccc(Nc3cc(C4CC4)n[nH]3)n2)cc1 [Compound 80, N-(4-aminophenyl)-N′-(5-cyclopropyl-2H-pyrazol-3-yl)-pyrimidine-2,4-diamine] | B, C | – | A, B**
CC(=O)OC/C=C/c1cnc(-c2ccccc2)nc1Nc1cc(C2CC2)[nH]n1 [Compound 81, (E)-3-(4-(5-cyclopropyl-1H-pyrazol-3-ylamino)-2-phenylpyrimidin-5-yl)allyl acetate] | B++, B+ | 100 to 500 nM | –
O=S(=O)(NCCO)c1ccc(Nc2nccc(Nc3cc(C4CC4)n[nH]3)n2)cc1 [Compound 83, 4-[[4-[(5-cyclopropyl-2H-pyrazol-3-yl)amino]pyrimidin-2-yl]amino]-N-(2-hydroxyethyl)benzenesulfonamide] | B+ | – | A**, A*
O=S(=O)(NCCO)c1ccc(-c2ncc(Cl)c(Nc3cc(C4CC4)[nH]n3)n2)s1 [Compound 86, 5-[5-chloro-4-[(5-cyclopropyl-1H-pyrazol-3-yl)amino]-pyrimidin-2-yl]-N-(2-hydroxyethyl)thiophene-2-sulfonamide] | B++ | 1 to 10 nM | –
COCCNS(=O)(=O)c1ccc(-c2ncc(Cl)c(Nc3cc(C4CC4)[nH]n3)n2)s1 [Compound 88, 5-(5-chloro-4-(5-cyclopropyl-1H-pyrazol-3-ylamino)pyrimidin-2-yl)-N-(2-methoxyethyl)thiophene-2-sulfonamide] | B+, C | 10 to 50 nM | –
O=S(=O)(NC1CC1)c1ccc(Nc2nccc(Nc3cc(C4CC4)n[nH]3)n2)cc1 [Compound 90, N-cyclopropyl-4-[[4-[(5-cyclopropyl-2H-pyrazol-3-yl)amino]pyrimidin-2-yl]amino]-benzenesulfonamide] | B+ | 10 to 50 nM | –
C#Cc1cnc(Nc2ccc3[nH]ncc3c2)nc1Nc1cc(C2CC2)[nH]n1 [Compound 91, N^4-(5-cyclopropyl-1H-pyrazol-3-yl)-5-ethynyl-N^2-(1H-indazol-5-yl)pyrimidine-2,4-diamine] | B+ | 10 to 50 nM | –
C#Cc1cnc(-c2ccc(C)c(C(N)=O)c2)nc1Nc1cc(C2CC2)[nH]n1 [Compound 93, 5-(4-(5-Cyclopropyl-1H-pyrazol-3-ylamino)-5-ethynylpyrimidin-2-yl)-2-methyl benzamide] | B, C | 10 to 50 nM | –
CS(=O)(=O)c1ccc(Nc2nccc(Nc3cc(C4CC4)[nH]n3)n2)cc1 [Compound 94, N′-(5-cyclopropyl-2H-pyrazol-3-yl)-N-(4-methylsulfonylphenyl)-pyrimidine-2,4-diamine] | B++, B+ | 1 to 10 nM | –
O=S(=O)(c1ccc(-c2ncc(Cl)c(Nc3cc(C4CC4)[nH]n3)n2)s1)N1CCCC1 [Compound 98, 5-chloro-N-(5-cyclopropyl-1H-pyrazol-3-yl)-2-(5-pyrrolidin-1-ylsulfonyl-2-thienyl)-pyrimidin-4-amine] | B, C | 1 to 10 nM | –
NS(=O)(=O)c1cccc(-c2ncc(O)c(Nc3cc(C4CC4)n[nH]3)n2)c1 [Compound 99, 3-(4-(3-cyclopropyl-1H-pyrazol-5-ylamino)-5-hydroxypyrimidin-2-yl)benzenesulfonamide] | B+, B | 10 to 50 nM | –
CN(C)S(=O)(=O)c1ccc(Nc2nccc(Nc3cc(C4CC4)n[nH]3)n2)cc1 [Compound 103, 4-(4-(3-cyclopropyl-1H-pyrazol-5-ylamino)pyrimidin-2-ylamino)N,N-dimethylbenzenesulfonamide] | B++, B+ | – | A**, A*
Oc1cccc(-c2ncc(Cl)c(Nc3cc(C4CC4)[nH]n3)n2)c1 [Compound 104, 3-[5-chloro-4-[(5-cyclopropyl-1H-pyrazol-3-yl)amino]-pyrimidin-2-yl]phenol] | B++, C | – | A*, A
CS(=O)(=O)Nc1ccc(-c2ncc(Cl)c(Nc3cc(C4CC4)[nH]n3)n2)cc1 [Compound 105, N-[4-[5-chloro-4-[(5-cyclopropyl-1H-pyrazol-3-yl)amino]pyrimidin-2-yl]phenyl]methanesulfonamide] | B+ | 10 to 50 nM | –
O=S(=O)(c1ccc(-c2ncc(Cl)c(Nc3cc(C4CC4)[nH]n3)n2)s1)N1CCOCC1 [Compound 106, 5-chloro-N-(5-cyclopropyl-1H-pyrazol-3-yl)-2-(5-morpholinosulfonyl-2-thienyl)-pyrimidin-4-amine] | B++, C | – | A*, A
CS(=O)(=O)Nc1cccc(-c2ncc(Cl)c(Nc3cc(C4CC4)[nH]n3)n2)c1 [Compound 107, N-[3-[5-chloro-4-[(5-cyclopropyl-1H-pyrazol-3-yl)amino]pyrimidin-2-yl]phenyl]methanesulfonamide] | B++, B+ | 50 to 100 nM | –
C#Cc1cnc(-c2ccc(S(=O)(=O)NCCO)s2)nc1Nc1cc(C2CC2)[nH]n1 [Compound 108, 5-(4-(3-cyclopropyl-1H-pyrazol-5-ylamino)-5-ethynylpyrimidin-2-yl)-N-(2-hydroxyethyl)thiophene-2-sulfonamide] | B+ | 1 to 10 nM | –
C#Cc1cnc(-c2ccc(C(C)=O)s2)nc1Nc1cc(C2CC2)[nH]n1 [Compound 111, 1-(5-(4-(5-Cyclopropyl-1H-pyrazol-3-ylamino)-5-ethynylpyrimidin-2-yl)thiophen-2-yl)ethanone] | B++, B | – | A**, A*
COCCNS(=O)(=O)c1ccc(Nc2nccc(Nc3cc(C4CC4)n[nH]3)n2)cc1 [Compound 112, 4-[[4-[(5-cyclopropyl-2H-pyrazol-3-yl)amino]pyrimidin-2-yl]amino]-N-(2-methoxyethyl)benzenesulfonamide] | B+ | 10 to 50 nM | –
C#Cc1cnc(-c2ccc(S(=O)(=O)NC)s2)nc1Nc1cc(C2CC2)n[nH]1 [Compound 113, 5-(4-(3-cyclopropyl-1H-pyrazol-5-ylamino)-5-ethynylpyrimidin-2-yl)-N-methylthiophene-2-sulfonamide] | B+ | 1 to 10 nM | –
C#Cc1cnc(-c2ccc(S(N)(=O)=O)s2)nc1Nc1cc(C2CC2)n[nH]1 [Compound 114, 5-(4-(3-Cyclopropyl-1H-pyrazol-5-ylamino)-5-ethynylpyrimidin-2-yl)thiophene-2-sulfonamide] | A+, A | 1 to 10 nM | –
C#Cc1cnc(-c2ccc(S(=O)(=O)NC(C)(C)C)s2)nc1Nc1cc(C2CC2)n[nH]1 [Compound 115, N-tert-butyl-5-(4-(5-cyclopropyl-1H-pyrazol-3-ylamino)-5-ethynylpyrimidin-2-yl)thiophene-2-sulfonamide] | B++, B+ | 10 to 50 nM | –
CNS(=O)(=O)c1ccc(-c2ncc(Cl)c(Nc3cc(C4CC4)n[nH]3)n2)cc1 [Compound 117, 4-[5-chloro-4-[(5-cyclopropyl-2H-pyrazol-3-yl)amino]-pyrimidin-2-yl]-N-methyl-benzenesulfonamide] | A, C, C | – | A*, A
OCc1cnc(-c2ccccc2)nc1Nc1cc(C2CC2)n[nH]1 [Compound 123, (4-(5-cyclopropyl-1H-pyrazol-3-ylamino)-2-phenylpyrimidin-5-yl)methanol] | B, C | 100 to 500 nM | –
NS(=O)(=O)c1cccc(-c2ncc(CO)c(Nc3cc(C4CC4)n[nH]3)n2)c1 [Compound 124, 3-(4-(5-cyclopropyl-1H-pyrazol-3-ylamino)-5-(hydroxymethyl)pyrimidin-2-yl)benzenesulfonamide] | A, B++ | 50 to 100 nM | –
